The record followed here is ChEMBL document CHEMBL4024780, “Discovery of Potent and Selective Allosteric Inhibitors of Protein Arginine Methyltransferase 3 (PRMT3)” (J Med Chem, 2018).

The target in test [1] is T1, Protein arginine N-methyltransferase 3 (Homo sapiens, UniProt O60678).
Description: Inhibition of PRMT3 (unknown origin) using C-terminally biotinylated histone H4 as substrate in presence of [3H]S-adenosylmethionine by scintillation proximity assay
For test [2], the target named is T1, Protein arginine N-methyltransferase 3. Kind of test: Inhibition of FLAG-tagged wild type human PRMT3 expressed in HEK293 cells assessed as decrease in exogenous H4R3 dimethylation level using GFP-tagged histone H4 as substrate after 24 hrs by Western blot analysis. Format: cell-based. For orientation: In western blotting, separated proteins are transferred to a membrane and probed.

Test [3] has the same target. Kind of test: Binding affinity to beta galactosidase fused human PRMT3 (211 to 531 residues) expressed in human HEK293 cells after 6 hrs by InCELL hunter assay. Format: cell-based.
Test [4] shares this target. In words: Binding affinity to beta galactosidase fused human PRMT3 (211 to 531 residues) expressed in human A549 cells after 6 hrs by InCELL hunter assay. Format: cell-based.

T1 sequence (O60678 whole entry): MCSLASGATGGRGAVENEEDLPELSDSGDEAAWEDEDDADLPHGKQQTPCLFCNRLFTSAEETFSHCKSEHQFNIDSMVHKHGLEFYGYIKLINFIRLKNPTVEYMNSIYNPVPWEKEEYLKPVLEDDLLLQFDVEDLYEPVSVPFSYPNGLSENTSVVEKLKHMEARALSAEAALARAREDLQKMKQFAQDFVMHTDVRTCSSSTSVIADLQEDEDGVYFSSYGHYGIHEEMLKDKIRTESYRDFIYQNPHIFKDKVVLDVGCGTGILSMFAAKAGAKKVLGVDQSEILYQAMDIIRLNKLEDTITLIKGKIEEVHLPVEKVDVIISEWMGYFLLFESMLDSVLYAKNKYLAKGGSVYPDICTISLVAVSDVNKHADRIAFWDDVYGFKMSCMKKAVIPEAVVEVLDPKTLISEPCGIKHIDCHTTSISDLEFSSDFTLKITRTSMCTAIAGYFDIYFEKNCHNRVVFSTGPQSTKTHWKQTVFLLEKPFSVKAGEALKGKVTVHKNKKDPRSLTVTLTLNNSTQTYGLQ

In turn, `O=C(NCC(=O)N1C2CCCC1CC2)Nc1ccc2cnccc2c1` returned a half-inhibitory concentration (IC50) in test [1] of 22 nM.

For `O=C(NCC(=O)N1CC(F)(F)C(F)(F)C1)Nc1ccc2cnccc2c1`, the 50% inhibitory concentration (IC50) turned out to be 24 nM in test [1] and 240 nM in test [2]. The EC50 was 3100 nM in test [3] and 2700 nM in test [4].

`O=C(NCCc1ccccc1)Nc1ccc2cnccc2c1` registered an IC50 in test [1] of 833 nM.

For the molecule `CN1CCN(C(=O)CNC(=O)Nc2ccc3cnccc3c2)CC1`, the IC50 in test [1] was above 1900 nM.

With `O=C(CNC(=O)Nc1ccc2cnccc2c1)NC1CC1`, the IC50 in test [1] came out at 158 nM.

`O=C(NCC(=O)N1CCCC1)Nc1cc2ccncc2cc1F` returned a half-maximal inhibitory concentration (IC50) in test [1] of 19 nM. Moreover, the EC50 in test [3] was determined as 2700 nM; in test [4], 1600 nM.

Molecule `O=C(NCCC1CC1)Nc1ccc2cnccc2c1` registered an IC50 in test [1] above 8000 nM.

As for `O=C(NCC(=O)N1C2CCC1CC2)Nc1ccc2cnccc2c1`, 46 nM corresponded to half-maximal inhibition in test [1] (IC50).

`O=C(CNC(=O)Nc1ccc2cnccc2c1)NC1CCCCC1` displayed a half-maximal inhibitory concentration (IC50) in test [1] of 477 nM.

Consider `O=C(NCC(=O)N1CCCCC1)Nc1ccc2cnccc2c1`, for which the IC50 in test [1] is 84 nM.

In turn, `CON(C)C(=O)CNC(=O)Nc1ccc2cnccc2c1` had an IC50 in test [1] of 476 nM.

A word on the IC50: it is the point on the concentration scale where inhibition reaches its midpoint. The term EC50 denotes the concentration needed to bring the measured effect to its halfway point. High values mean weaker potency, low ones greater potency.
